Literature values in patent EP4772635A1, “RNAI AGENT TARGETING APP AND PHARMACEUTICAL USE THEREOF” (Tuojie Biotech (Shanghai) Co., Ltd., priority 2023, dated 2025).

Details: octanol-water partition coefficient, illustrative values in the definitions

logKow | Structure (SMILES)
about 0.7 | NCCCCCCO [6-aminohexanol]
10.7 | CC(C)CCC[C@@H](C)[C@H]1CC[C@H]2[C@@H]3CC=C4C[C@@H](OC(=O)NCCCCCCO)CC[C@]4(C)[C@H]3CC[C@]12C [cholesteryl N-(hexan-6-ol)carbamate]
